Source: patent publication US6605611B2, “Base analogues” (Nycomed Amersham PLC, priority 1997, dated 2003)

Tests used:
Format in all cases: biochemical
[1] = target: terminal deoxynucleotidyl transferase (Bos taurus, UniProt P06526); test: oligonucleotide tailing reaction with terminal deoxynucleotidyl transferase; conditions: 32 μM nucleotide, 25 U terminal deoxynucleotidyl transferase, 15 mer primer, 90 minutes at 37° C.
Source text: 1-(2′-deoxy-5′-triphospho-β-D-ribofuranosyl)piperidino[2,3-d]pyrimidine-2(1H)-one (1.6), 6-methylamine-3-(5-triphospho-2-deoxy-β-D-erythro-pentofuranosyl)furano[2,3-d]pyrimidin-2-one) (3.3a) and 5-FAM-(6-methylamine-3-(5-triphospho-2-deoxy-β-D-erythro-pentofuranosyl)furano[2,3-d]pyrimidin-2-one) (3.3b), 6-methyl-N-(6-amino)-caproamide-3-(5-triphospho-2-deoxy-β-D-erythro-pentofuranosyl)furano[2,3-d]pyrimidin-2-one (4.3a) and 5-FAM-(6-methyl-N-(6-amino)-caproamide-3-(5-triphospho-2-deoxy-β-D-erythro-pentofuranosyl)furano[2,3-d]pyrimidin-2-one) (4.3b), 6-methylamine-3-(5-triphospho-2-deoxy-β-D-erythro-pentofuranosyl)pyrrolo[2,3-d]pyrimidin-2-one) (8.1), 6-methyl-N-(6-amino)-caproamide-3-(5-triphospho-2-deoxy-β-D-erythro-pentofuranosyl)pyrrolo[2,3-d]pyrimidin-2-one (10.1a), and the FAM and Cy5 of (10.1a, e.g. 10.1b and 10.1c) as substrates for terminal deoxynucleotidyl transferase. In order to test the ability of compounds (1.6), (3.3a), (3.3b), (4.3a), (4.3b), (8.1), (10.1a), (10.1b) and (10.1c) to be accepted by terminal deoxynucleotidyl transferase as a substrate, an oligonucleotide tailing reaction was performed.
A 15 mer primer (sequence: 5′ TGC ATG TGC TGG AGA 3′) and 8 to 32 base oligonucleotide markers were 5′ end labelled with [γ^33P] ATP and T4 polynucleotide kinase. Reactions were boiled for 5 minutes after labelling to remove any PNK activity. Four picomoles of the labelled primer, 25 U terminal deoxynucleotidyl transferase and 32 μM dATP, dCTP, dGTP, dTTP or compounds (1.6), (3.3a), (3.3b), (4.3a), (4.3b), (8.1), (10.1a), (10.1b) and (10.1c) were incubated in 25 μl 100 mM cacodylate buffer pH7.2, 2 mM CoCl2 and 0.2 mM 2-mercaptoethanol for 90 minutes at 37° C. The reactions were stopped by the addition of formamide stop solution and the reaction products run on a 19% polyacrylamide 7M urea gel with the labelled markers. Autoradiography using Biomax film was carried out on the dry gel.

[2] = tested on: exonuclease free Klenow fragment of DNA polymerase I (EFK); test: primer extension assay, EFK, Templates 1 and 2, Example 13; conditions: for substrate for the polymerase (EFK), incorporation: 20 μM total nucleotide, 37° C. for 3 minutes, Template 1 or Template 2; for substrate quality compared with the analogue with the shorter linker arm: EFK primer extension, 20 μM
Experimental: A primer extension assay was used to evaluate compounds (3.3a), (3.3b), (4.3a),(4.3b) and (8.1) as substrates for exonuclease free Klenow fragment of DNA polymerase I (EFK). The assay used a ^33P 5′ end labelled 15 mer primer hybridised to one of two 24 mer templates. The sequences of the primer and templates are:
(§1) One picomole ^33P labelled primer was hybridised to 2 picomoles of template in ×2 Klenow buffer. To this was added either 20 μM dCTP or 20 μM (3.3a) or 20 μM (3.3b) or 20 μM (4.3a) or 20 μM (4.3b) or 20 μM (8.1) or mixtures of dCTP and compound (3.3a) or (3.3b) or (4.3a) or (4.3b) or (8.1) keeping the total nucleotide concentration fixed at 20 μM. One unit EFK and 2 mU inorganic pyrophosphatase were used per reaction. Primer alone, primer plus template plus enzyme controls were also carried out. The reactions were incubated at 37° C. for 3 minutes. Reactions were then stopped by the addition of formamide/EDTA stop solution. Reaction products were separated on a 19% polyacrylamide 7M urea gel and the product fragments sized by comparison with a ^33P labelled 8 to 32 base oligonucleotide ladder after exposure to Kodak Biomax autoradiography film.

[3] = tested on: exonuclease free Klenow fragment of DNA polymerase I (EFK); test: primer extension assay, EFK, Example 12; conditions: 20 μM total nucleotide, 37° C. for 3 minutes, 24 mer template
Experimental: A primer extension assay was used to evaluate compounds (10.1a), (10.1b) and (10.1c) as substrates for exonuclease free Klenow fragment of DNA polymerase I (EFK). The assay used a ^33P 5′ end labelled 15 mer primer hybridised to a 24 mer template. The sequences of the primer and template are:
as §1, with “μM (10.1a)” for “μM (3.3a)”, “μM (10.1b)” for “μM (3.3b)”, “μM (10.1c)” for “μM (4.3a) or 20 μM (4.3b) or 20 μM (8.1)”, “compound (10.1a)” for “compound (3.3a)”, “or compound (10.1b)” for “or (3.3b)”, “or compound (10.1c)” for “or (4.3a) or (4.3b) or (8.1)”

[4] = tested on: AMV reverse transcriptase; test: 1st strand cDNA synthesis, incorporation monitored by 33P-dATP spike, TLC and gel
Experimental: Incorporation of compound (10.1a) into 1st strand cDNA was carried out using a balance of dCTP such that the total concentration of (10.1a) and dCTP was equivalent to each of the other three dNTP concentrations.
(10.1a) was used at three different percentages
These reactions were compared with reactions including Cy5 labelled dCTP. All reactions were monitored by carrying out the reaction in duplicate and monitoring one of the duplicates with a spike of ^33P-dATP.
1 μl ^33P-dATP-active samples only
1 μl AMV reverse transcriptase 20 U/μl
Incubate at 42° C. for 2½ hours
The cDNA reactions were monitored by TLC as follows
1 μl of sample was spotted onto PEI cellulose TLC plates and run in 1.25M Potassium phosphate buffer
Samples were then purified by Qiagen column and eluted in 50 μl of water. The active cDNA products were analysed on a 6% polyacrylamide gel
The gel was then covered in Saran wrap and exposed to phosphorscreen for 1 hour. Phosphorscreen analysis was carried out on the Molecular Dynamics Storm 860 instrument.

[5] = target: Thermus aquaticus DNA polymerase (Thermus aquaticus, UniProt P19821); test: incorporation into arabidopsis DNA by PCR; conditions: 5% to 50% (10.1a), balance dCTP, 35 cycles
Experimental: Incorporation of (10.1a) into arabidopsis DNA by PCR was carried out as follows:
The (10.1a) was used in the PCR at various percentages with a balance of dCTP such that the total concentration of (10.1a) and dCTP was equivalent to each of the other three base dNTP's. The percentages of (10.1a) used were:
After PCR, the samples were purified by Qiagen column and analysed by 1% agarose gel.

[6] = tested on: exonuclease free Klenow fragment of DNA polymerase I (EFK); test: primer extension assay, EFK, Example 14; conditions: 80 μM (1.6), with or without 4 μM dNTPαS, 37° C. for 3 minutes
Experimental: A primer extension assay was used to evaluate compound (1.6) as a substrate for exonuclease free Klenow fragment of DNA polymerase I (EFK). The assay used a ^33P 5′ end labelled 15 mer primer hybridised to a 24 mer template. The sequences of the primer and template are:
One picomole ^33P labelled primer was hybridised to 2 picomoles of template in ×2 Klenow buffer. To this was added either 4 μM dNTPαS or 80 μM (1.6) or a mixture of 4 μM dNTPαS 80 μM (1.6). One unit EFK and 2 mU inorganic pyrophosphatase were used per reaction. Primer alone, primer plus template plus enzyme controls were also carried out. The reactions were incubated at 37° C. for 3 minutes. Reactions were then stopped by the addition of formamide I EDTA stop solution. Reaction products were separated on a 19% polyacrylamide 7M urea gel and the product fragments sized by comparison with a ^33P labelled 8 to 32 base oligonucleotide ladder after exposure to Kodak Biomax autoradiography film.

terminal deoxynucleotidyl transferase, sequence (P06526 whole entry): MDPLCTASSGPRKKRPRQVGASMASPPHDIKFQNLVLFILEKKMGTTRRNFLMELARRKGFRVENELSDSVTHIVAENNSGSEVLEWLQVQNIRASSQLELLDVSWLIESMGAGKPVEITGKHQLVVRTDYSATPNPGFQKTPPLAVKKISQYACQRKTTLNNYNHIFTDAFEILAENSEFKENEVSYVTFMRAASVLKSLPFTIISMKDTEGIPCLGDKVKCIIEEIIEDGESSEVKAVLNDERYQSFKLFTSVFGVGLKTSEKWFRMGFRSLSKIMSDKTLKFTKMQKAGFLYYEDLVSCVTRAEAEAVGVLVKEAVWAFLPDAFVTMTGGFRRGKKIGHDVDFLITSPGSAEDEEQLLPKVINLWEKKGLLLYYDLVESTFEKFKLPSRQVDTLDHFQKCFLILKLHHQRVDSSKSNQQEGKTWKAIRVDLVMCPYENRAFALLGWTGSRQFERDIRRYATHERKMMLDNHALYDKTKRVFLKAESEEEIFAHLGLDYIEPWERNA
Thermus aquaticus DNA polymerase, sequence (P19821 whole entry): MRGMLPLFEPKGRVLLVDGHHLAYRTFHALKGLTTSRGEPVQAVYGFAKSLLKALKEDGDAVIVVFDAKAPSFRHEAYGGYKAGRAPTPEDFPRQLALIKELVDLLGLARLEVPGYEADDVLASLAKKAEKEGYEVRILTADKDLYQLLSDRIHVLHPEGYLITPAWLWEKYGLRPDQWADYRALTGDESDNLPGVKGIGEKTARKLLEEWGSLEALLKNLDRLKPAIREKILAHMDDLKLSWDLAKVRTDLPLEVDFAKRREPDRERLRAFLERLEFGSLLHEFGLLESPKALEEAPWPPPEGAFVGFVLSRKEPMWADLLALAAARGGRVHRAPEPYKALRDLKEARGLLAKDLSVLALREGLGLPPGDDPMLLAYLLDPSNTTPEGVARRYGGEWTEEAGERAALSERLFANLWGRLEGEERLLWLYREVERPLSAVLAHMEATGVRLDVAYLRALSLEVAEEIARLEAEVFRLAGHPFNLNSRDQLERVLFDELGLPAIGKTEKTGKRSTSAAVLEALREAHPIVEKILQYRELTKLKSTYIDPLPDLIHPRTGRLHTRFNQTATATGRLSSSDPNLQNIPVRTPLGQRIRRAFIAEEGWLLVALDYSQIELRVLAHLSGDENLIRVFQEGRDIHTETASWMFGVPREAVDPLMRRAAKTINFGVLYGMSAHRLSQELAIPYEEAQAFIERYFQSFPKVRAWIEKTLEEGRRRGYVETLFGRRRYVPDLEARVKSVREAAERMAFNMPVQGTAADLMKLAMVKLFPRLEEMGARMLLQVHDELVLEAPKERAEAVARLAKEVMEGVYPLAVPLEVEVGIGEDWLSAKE

Row | Compound | 3′ tail length [1] | substrate for the polymerase (EFK), incorporation [2] | also measured
1 | O=C(CCCCCNC(=O)c1ccc2c(c1)C(=O)OC21c2ccc(O)cc2Oc2cc(O)ccc21)NCc1cc2cn([C@H]3C[C@H](O)[C@@H](COP(=O)(O)OP(=O)(O)OP(=O)(O)O)O3)c(=O)nc2o1 [Compound 4.3b, 5-FAM-(6-methyl-N-(6-amino)-caproamide-3-(5-triphospho-2-deoxy-β-D-erythro-pentofuranosyl)furano[2,3-d]pyrimidin-2-one)] | 9-14 bases | only incorporated in reactions using Template 2 | 
2 | NCCCCCC(=O)NCC=Cc1cn([C@H]2C[C@H](O)[C@@H](COP(=O)(O)OP(=O)(O)OP(=O)(O)O)O2)c(=O)nc1N [5-allylaminocaproamide dCTP, reference compound] |  |  | incorporation by the polymerase ([2]; under similar assay conditions): did not show any incorporation
3 | NCCCCCC(=O)NCc1cc2cn([C@H]3C[C@H](O)[C@@H](COP(=O)(O)OP(=O)(O)OP(=O)(O)O)O3)c(=O)nc2o1 [Compound 4.3a, 6-Methyl-N-(6-amino)-caproamide-3-(5-triphospho-2-deoxy-β-D-erythro-pentofuranosyl)furano[2,3-d]pyrimidin-2-one] | 7-9 bases | a substrate for the polymerase again being able to replace dCTP | substrate quality compared with the analogue with the shorter linker arm [2]: better substrate than (3.3a)
4 | NCCCCCC(=O)NCc1cc2cn([C@H]3C[C@H](O)[C@@H](COP(=O)(O)OP(=O)(O)OP(=O)(O)O)O3)c(=O)nc2[nH]1 [Compound 10.1a, 6-methyl-N-(6-amino)-caproamide-3-(5-triphospho-2-deoxy-β-D-erythro-pentofuranosyl)pyrrolo[2,3-d]pyrimidin-2-one] | 7-8 bases |  | substrate for the polymerase (EFK), incorporation in place of dCTP [3]: surprisingly good substrate; substrate quality compared with the analogue with the shorter linker arm [2]: better substrate than (8.1); 33P-dATP Incorporation (TLC) ([4]; 50% (10.1a), balance dCTP): 23.2%; 33P-dATP Incorporation (TLC) ([4]; 75% (10.1a), balance dCTP): 16.5%; 33P-dATP Incorporation (TLC) ([4]; 100% (10.1a), no dCTP): 11.5%; formation of PCR product, agarose gel analysis [5]: resulted in the formation of PCR product
5 | Cy5-(6-methyl-N-(6-amino)-caproamide-3-(triphospho-2-2deoxy-β-D-erythro-pentofuranosyl)pyrrolo[2,3-d]pyrimidin-2-one [Compound 10.1c] | greater than 30 bases |  | 
6 | NCc1cc2cn([C@H]3C[C@H](O)[C@@H](COP(=O)(O)OP(=O)(O)OP(=O)(O)O)O3)c(=O)nc2o1 [Compound 3.3a] |  | not a substrate for the polymerase | 
7 | NCc1cc2cn([C@H]3C[C@H](O)[C@@H](COP(=O)(O)OP(=O)(O)OP(=O)(O)O)O3)c(=O)nc2[nH]1 [Compound 8.1] |  | a substrate for the polymerase being able to substitute for dCTP | 
8 | O=C(NCc1cc2cn([C@H]3C[C@H](O)[C@@H](COP(=O)(O)OP(=O)(O)OP(=O)(O)O)O3)c(=O)nc2o1)c1ccc2c(c1)C(=O)OC21c2ccc(O)cc2Oc2cc(O)ccc21 [Compound 3.3b, 5-Carboxyfluoresceinyl-(6-methylamine-3-(5-triphospho-2-deoxy-β-D-erythro-pentofuranosyl)furano[2,3-d]pyrimidin-2-one)] |  | not a substrate for the polymerase using either of the Templates | 
9 | O=C(CCCCCNC(=O)c1ccc2c(c1)C(=O)OC21c2ccc(O)cc2Oc2cc(O)ccc21)NCc1cc2cn([C@H]3C[C@H](O)[C@@H](COP(=O)(O)OP(=O)(O)OP(=O)(O)O)O3)c(=O)nc2[nH]1 [Compound 10.1b, 5-FAM-(6-methyl-N-(6-amino)-caproamide-3-(5-triphospho-2-deoxy-β-D-erythro-pentofuranosyl)pyrrolo[2,3-d]pyrimidin-2-one)] | 18-24 bases |  | 
10 | O=c1nc2c(cn1C1CC(O)C(COP(=O)(O)OP(=O)(O)OP(=O)(O)O)O1)CCCN2 [Compound 1.6, 1-(2′-deoxy-5′-triphospho-β-D-ribofuranosyl)piperidino[2,3-d]pyrimidine-2(1H)-one] | equivalent to those produced by dCTP at the same concentration |  | substrate for EFK, incorporation in place of dCTP [6]: a substrate for EFK and that it was efficiently incorporated in place of dCTP
